Consider 16 compounds from ChEMBL document CHEMBL3862023, “Synthesis of N-aryl and N-arylcarbamoylamino derivatives of 1,3-diazinane-5-carboxamide and their activity against glioblastoma LN-229 cell line” (Bioorg Med Chem, 2016).

Series [1] is described as follows: Solubility of the compound in chloroform. It is filed as physicochemical.
Series [2] in a line: Solubility of the compound in ethanol. It counts as physicochemical.
A short description of series [3]: Solubility of compound in 1% DMSO at 100 mg/ml. It is filed as physicochemical.
Series [4] can be described thus: Solubility of the compound in trifluoroacetic acid. It is filed as physicochemical.
The nature of series [5]: Solubility of the compound in isopropanol. It counts as physicochemical.
Series [6] is described as follows: Solubility of the compound in DMSO/TFA. It counts as physicochemical.
Series [7] is described as follows: Solubility of the compound in water. It counts as physicochemical.
The nature of series [8]: Solubility of the compound in CHCl3/TFA. It counts as physicochemical.
A short description of series [9]: 1-Octanol-water distribution coefficient, log P of compound. It is filed as physicochemical.
A short description of series [10]: Solubility of the compound in DMSO. It counts as physicochemical.
The nature of series [11]: Cytotoxicity against human LN229 cells assessed as concentration required for induction of cell death after 24 hrs by crystal violet staining based light microscopic analysis. It counts as functional, LN-229.

≈ marks a conversion by molar mass, not a printed value.

As a reminder, the solubility is the concentration that dissolves in the medium under given conditions. Lower therefore signals a poorly soluble substance. In general, logP refers to the decadic logarithm of the partition coefficient of the neutral form, usually between octanol and water. A high value points to a more lipophilic compound. As to `CN1C(=O)NC(=O)C(C(=O)NNC(=O)Nc2ccc(O)cc2)C1=O` (stereo not given), the solubility entry in series [1], in [2], in series [3], in series [4], in [5] and in series [6] was “Insoluble” throughout. Further, the solubility was 70 µg/mL (≈ 209 µM) in series [7], “Insoluble” in [8] and “Insoluble” in series [10]. The compound also yielded a logP in series [9] of 1.08.
In the case of `CN1C(=O)C(C(=O)NNC(=O)Nc2ccc(Cl)cc2)C(=O)N(C)C1=O`, the solubility result in series [1], in series [2], in series [4], in [5], in series [6] and in [8] was “Insoluble” in each case. Moreover, the solubility entry in series [10] is given as “Insoluble”. Moreover, the Activity in [11] was 10 µg/mL.
Consider `CN1C(=O)NC(=O)C(C(=O)NNC(=O)Nc2ccc(Cl)cc2)C1=O` (stereo not given), for which the solubility result in series [1], in series [2], in series [4], in [5], in [6] and in series [8] was “Insoluble” each time. Also, the solubility result in [10] was “Insoluble”. The Activity in series [11] stood at 100 µg/mL.
Regarding `CN1C(=O)C(C(=O)NNC(=O)Nc2ccc(O)cc2)C(=O)N(C)C1=O`, the solubility entry in series [1], in series [2], in series [4], in series [5], in series [6] and in series [8] was “Insoluble” in each case. For the same compound, in [10], the solubility entry is given as “Insoluble”. The Activity in [11] is 10 µg/mL.
Turning to `CN1C(=O)C(C(=O)Nc2ccc(Cl)cc2)C(=O)N(C)C1=O`, the solubility result in series [3] was “Insoluble”; in series [7] it was 130 µg/mL (≈ 420 µM). Also, the Activity in series [11] stood at 10 µg/mL. In [9], this compound yielded a logP of 1.18.
`CN1C(=O)C(C(=O)NNC(=O)Nc2ccc(Cl)c(Cl)c2)C(=O)N(C)C1=O`: the solubility result in [1], in series [2], in series [3], in series [4], in [5] and in series [6] was “Insoluble” throughout. Besides, the solubility in [7] was 500 µg/mL (≈ 1240 µM); in series [8] it was “Insoluble”; in [10], “Insoluble”. In [11], the Activity worked out at 1 µg/mL. Moreover, the lipophilicity (logP) in [9] was 0.73.
`CN1C(=O)C(C(=O)NNC(=O)Nc2ccc(C#N)cc2)C(=O)N(C)C1=O`: the solubility entry in series [1], in series [2], in [4], in series [5], in [6] and in series [8] was “Insoluble” in each case. Besides, the solubility result in [10] is on record as “Insoluble”. Also, in [11], the Activity was 100 µg/mL.
On to `CN1C(=O)NC(=O)C(C(=O)NNC(=O)Nc2ccc([N+](=O)[O-])cc2)C1=O` (stereo not given), for which the solubility entry in series [1], in [2], in series [4], in series [5], in series [6] and in series [8] was “Insoluble” in each case. Besides, the solubility entry in series [10] is “Insoluble”. Besides, the Activity in series [11] is 100 µg/mL.
Turning to `O=C(NNC(=O)C1C(=O)NC(=O)N(c2ccccc2)C1=O)Nc1ccc(Cl)c(Cl)c1` (stereo not given), the solubility entry in series [1], in [2], in series [4], in series [5], in series [6] and in series [8] was “Insoluble” throughout. Also, in [10], the solubility result is given as “Insoluble”. In series [11], the Activity amounted to 100 µg/mL.
Take `CN1C(=O)C(C(=O)NNC(=O)Nc2ccc(O)c([N+](=O)[O-])c2)C(=O)N(C)C1=O`: the solubility result in [1], in [2], in [4], in [5], in series [6] and in series [8] was “Insoluble” throughout. In addition, the solubility result in [10] is reported as “Insoluble”. In addition, the Activity in series [11] was 10 µg/mL.
As for `O=C(NNC(=O)C1C(=O)NC(=O)N(c2ccccc2)C1=O)Nc1ccc([N+](=O)[O-])cc1` (stereo not given), the solubility result in series [1], in [2], in [4], in series [5], in [6] and in [8] was “Insoluble” throughout. For the same compound, the solubility entry in series [10] is given as “Insoluble”. Further, the Activity in series [11] was found to be 100 µg/mL.
Regarding `CN1C(=O)C(C(=O)NNC(=O)Nc2ccc(F)cc2)C(=O)N(C)C1=O`, the solubility entry in series [1], in [2], in series [4], in series [5], in series [6] and in series [8] was “Insoluble” each time. Further, the solubility result in series [10] is “Insoluble”. Further, the Activity in series [11] was 100 µg/mL.
In the case of `O=C1NC(=O)C(C(=O)NNC(=O)Nc2ccc(Cl)cc2)C(=O)N1`, the solubility result in series [1] was “Insoluble”; in series [2], “Insoluble”; in series [4], “Soluble”; in series [5] it was “Insoluble”; in series [6], “Soluble”; in series [8], “Soluble”. Further, the solubility entry in [10] is “Insoluble”. The Activity in [11] came to 100 µg/mL.
In the case of `CN1C(=O)C(C(=O)NNC(=O)Nc2ccc([N+](=O)[O-])cc2)C(=O)N(C)C1=O`, the solubility entry in [1], in [2], in [4], in series [5], in [6] and in [8] was “Insoluble” throughout. In addition, the solubility entry in series [10] is “Insoluble”. Also, the Activity in series [11] was found to be 10 µg/mL.
As for `O=C1NC(=O)C(C(=O)NNC(=O)Nc2ccccc2)C(=O)N1`, the solubility entry was “Insoluble” in series [1]; “Insoluble” in series [2]; “Soluble” in series [4]; “Insoluble” in [5]; “Soluble” in series [6]; “Soluble” in series [8]. Also, in series [10], the solubility entry is given as “Insoluble”. Besides, the Activity in series [11] came to 100 µg/mL.
For the compound `CN1C(=O)C(C(=O)Nc2ccccc2)C(=O)N(C)C1=O`, the solubility result in series [3] was “Insoluble”; in series [7], 140 µg/mL (≈ 509 µM). Besides, the Activity in series [11] worked out at 100 µg/mL. In series [9], this compound displayed a lipophilicity (logP) of 0.4.
